Assay results reported in paper PMC11184554, “Nature-Inspired Gallinamides Are Potent Antischistosomal Agents: Inhibition of the Cathepsin B1 Protease Target and Binding Mode Analysis” (ACS Infectious Diseases, 2024).

Test system: ex vivo adult mixed sex S. mansoni
Experiment: Phenotypic screen with ex vivo adult schistosomes
Type: cell-based
Conditions: for adult severity score: scale 0 to 4
Method: In the next step, the bioactive compounds gallinamide A, 1, 6, and 9 (selected for structural analyses (see below)) were phenotypically screened against adult schistosomes. Experiments were performed at 1, 2, 5, and 10 μM with ex vivo adult mixed sex S. mansoni, and the phenotypes observed over 48 h were assigned severity scores ranging from 0 to 4 (Table 3 and Table S3).
For adult schistosomes, screens were performed in 24-well plates containing four male worms and one to two female worms per well in a final volume of 2 mL of complete Basch medium. Compounds were added at the final concentrations between 1 and 10 μM. Incubations were maintained for 48 h at 37 °C under 5% CO2. Afterward, the adult worms were collected, washed in RPMI 1640 medium, and used for soluble protein extract preparation.
A constrained nomenclature of “descriptors”[39],[42] was used to record the multiple and dynamic changes in movement, shape, and translucence that the schistosome parasite is capable of (Table S1 for NTS and Table S3 for adults). These descriptors were then converted into an ordinal “severity score” system ranging from 0 (no effect) to 4 (maximum effect), which allows for the relative comparison of compound effects.

Compound	adult phenotype descriptors (2 h, 1 µM)	adult severity score (2 h, 1 μM)	adult phenotype descriptors (2 h, 2 µM)	adult severity score (2 h, 2 μM)	adult phenotype descriptors (2 h, 5 µM)	adult severity score (2 h, 5 μM)	adult phenotype descriptors (2 h, 10 µM)	adult severity score (2 h, 10 μM)	adult phenotype descriptors (6 h, 1 µM)	adult severity score (6 h, 1 μM)	adult phenotype descriptors (6 h, 2 µM)	adult severity score (6 h, 2 μM)	adult phenotype descriptors (6 h, 5 µM)	adult severity score (6 h, 5 μM)	adult phenotype descriptors (6 h, 10 µM)	adult severity score (6 h, 10 μM)	adult phenotype descriptors (24 h, 1 µM)	adult severity score (24 h, 1 μM)	adult phenotype descriptors (24 h, 2 µM)	adult severity score (24 h, 2 μM)	also measured
CCC(C)C(C(=O)OC(CC(C)C)C(=O)NC(CC(C)C)C(=O)NC(C)C=CC(=O)N1C(=O)C=C(OC)C1CC(C)C)N(C)C (centres unmarked) [compound 1]	N	0	N	0	N	0	N	0	N	0	N	0	N	0	unc	1	N	0	N	0	adult phenotype descriptors (24 h, 5 µM): N; adult severity score (24 h, 5 μM): 0; adult severity score (24 h, 10 μM): 4; adult phenotype descriptors (48 h, 1 µM): N; adult severity score (48 h, 1 μM): 0; adult phenotype descriptors (48 h, 2 µM): unc, dark; adult severity score (48 h, 2 μM): 2; adult phenotype descriptors (48 h, 5 µM): unc, dark; adult severity score (48 h, 5 μM): 2; adult severity score (48 h, 10 μM): 4
CCC(C)C(C(=O)OC(CC(C)C)C(=O)NC(CC(C)C)C(=O)NC(C)C=CC(=O)N1C(=O)C=C(OC)C1Cc1ccccc1)N(C)C (centres unmarked) [compound 9]	N	0	N	0	unc	1	unc	1	N	0	N	0	unc	1	unc, on sides	2	N	0	N	0	adult phenotype descriptors (24 h, 5 µM): unc, Dark; adult severity score (24 h, 5 μM): 2; adult severity score (24 h, 10 μM): 4; adult phenotype descriptors (48 h, 1 µM): N; adult severity score (48 h, 1 μM): 0; adult phenotype descriptors (48 h, 2 µM): unc, dark; adult severity score (48 h, 2 μM): 2; adult severity score (48 h, 5 μM): 4; adult severity score (48 h, 10 μM): 4
